Results on 10 compounds are retold here after patent publication US8450315B2, “Phosphoinositide 3-kinase inhibitor compounds and methods of use” (Genentech, Inc., priority 2006, dated 2013).

Common to all, as to assay type: biochemical
For experiment [1], the target named is human PI3K isoform delta (p110 delta) (Homo sapiens, UniProt O00329). The experiment can be described thus: p110 isoform selectivity scintillation proximity assay (SPA), delta isoform. The following applies: fold potency over delta relative to alpha, calculated from IC50 values (SPA). How it is done:
(§1) Binding of Formula Ia and Ib compounds from Tables 1a and 1b to purified preparations of p110 isoforms alpha, beta, delta, and gamma was measured by a Scintillation Proximity Assay (SPA) to determine binding activity (IC50 μMol) and selectivity of binding of beta, delta, and gamma isoforms relative to alpha (Example 365). These values are expressed in Table 2.
(§2) The ability of Formula Ia and Ib compounds from Tables 1a and 1b to inhibit the lipid kinase activity of purified preparations of human PI3K isoforms alpha, beta, delta, and gamma was determined by a radiometric scintillation proximity assay (SPA, GE Healthcare, Amersham Biosciences). Concentration dependent inhibition at 50% (IC50 μMol) was determined for all four isoforms […] and fold potency over beta, delta, and gamma relative to alpha was calculated for a selection of compounds in Table 2. Each compound has a p110 alpha IC50<1 μMol.

Experiment [2] has as its target human PI3K isoform gamma (p110 gamma) (Homo sapiens, UniProt P48736). As to the kind of experiment: p110 isoform selectivity scintillation proximity assay (SPA), gamma isoform. The conditions noted are these: fold potency over gamma relative to alpha, calculated from IC50 values (SPA). How it is done: as §1, §2
Experiment [3] has as its target human PI3K isoform beta (p110 beta) (Homo sapiens, UniProt P42338). As to the kind of experiment: p110 isoform selectivity scintillation proximity assay (SPA), beta isoform. The following applies: fold potency over beta relative to alpha, calculated from IC50 values (SPA). The procedure:
as §1, §2

Chain of human PI3K isoform gamma (p110 gamma) (P48736 whole entry, canonical isoform): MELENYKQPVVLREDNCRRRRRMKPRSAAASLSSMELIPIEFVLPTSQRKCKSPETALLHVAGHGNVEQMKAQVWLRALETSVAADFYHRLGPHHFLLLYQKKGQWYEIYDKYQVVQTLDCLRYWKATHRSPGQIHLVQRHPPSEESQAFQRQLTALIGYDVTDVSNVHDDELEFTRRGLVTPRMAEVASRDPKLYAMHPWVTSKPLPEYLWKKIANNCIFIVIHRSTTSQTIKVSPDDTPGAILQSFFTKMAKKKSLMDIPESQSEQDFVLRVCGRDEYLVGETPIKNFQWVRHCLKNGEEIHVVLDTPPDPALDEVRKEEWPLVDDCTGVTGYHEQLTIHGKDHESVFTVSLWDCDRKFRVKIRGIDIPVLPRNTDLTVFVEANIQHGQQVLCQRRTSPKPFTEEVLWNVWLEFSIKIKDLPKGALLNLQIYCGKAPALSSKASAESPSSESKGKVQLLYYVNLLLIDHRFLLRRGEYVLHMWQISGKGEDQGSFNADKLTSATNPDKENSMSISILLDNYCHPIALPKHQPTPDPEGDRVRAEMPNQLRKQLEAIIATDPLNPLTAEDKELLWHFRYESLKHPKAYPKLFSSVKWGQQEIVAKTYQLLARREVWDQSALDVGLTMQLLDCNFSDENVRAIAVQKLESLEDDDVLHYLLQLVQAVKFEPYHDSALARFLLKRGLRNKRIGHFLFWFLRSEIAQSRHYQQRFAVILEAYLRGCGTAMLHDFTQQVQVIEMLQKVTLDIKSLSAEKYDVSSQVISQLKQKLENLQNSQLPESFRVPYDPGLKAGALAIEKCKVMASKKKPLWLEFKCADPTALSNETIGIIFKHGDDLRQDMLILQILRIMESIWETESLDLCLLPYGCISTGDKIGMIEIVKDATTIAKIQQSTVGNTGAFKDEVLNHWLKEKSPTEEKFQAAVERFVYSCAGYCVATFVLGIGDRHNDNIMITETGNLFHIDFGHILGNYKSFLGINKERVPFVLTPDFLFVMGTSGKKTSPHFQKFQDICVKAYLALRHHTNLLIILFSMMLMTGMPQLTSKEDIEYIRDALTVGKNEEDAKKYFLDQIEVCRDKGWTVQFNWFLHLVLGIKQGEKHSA
Chain of human PI3K isoform delta (p110 delta) (O00329 whole entry, canonical isoform): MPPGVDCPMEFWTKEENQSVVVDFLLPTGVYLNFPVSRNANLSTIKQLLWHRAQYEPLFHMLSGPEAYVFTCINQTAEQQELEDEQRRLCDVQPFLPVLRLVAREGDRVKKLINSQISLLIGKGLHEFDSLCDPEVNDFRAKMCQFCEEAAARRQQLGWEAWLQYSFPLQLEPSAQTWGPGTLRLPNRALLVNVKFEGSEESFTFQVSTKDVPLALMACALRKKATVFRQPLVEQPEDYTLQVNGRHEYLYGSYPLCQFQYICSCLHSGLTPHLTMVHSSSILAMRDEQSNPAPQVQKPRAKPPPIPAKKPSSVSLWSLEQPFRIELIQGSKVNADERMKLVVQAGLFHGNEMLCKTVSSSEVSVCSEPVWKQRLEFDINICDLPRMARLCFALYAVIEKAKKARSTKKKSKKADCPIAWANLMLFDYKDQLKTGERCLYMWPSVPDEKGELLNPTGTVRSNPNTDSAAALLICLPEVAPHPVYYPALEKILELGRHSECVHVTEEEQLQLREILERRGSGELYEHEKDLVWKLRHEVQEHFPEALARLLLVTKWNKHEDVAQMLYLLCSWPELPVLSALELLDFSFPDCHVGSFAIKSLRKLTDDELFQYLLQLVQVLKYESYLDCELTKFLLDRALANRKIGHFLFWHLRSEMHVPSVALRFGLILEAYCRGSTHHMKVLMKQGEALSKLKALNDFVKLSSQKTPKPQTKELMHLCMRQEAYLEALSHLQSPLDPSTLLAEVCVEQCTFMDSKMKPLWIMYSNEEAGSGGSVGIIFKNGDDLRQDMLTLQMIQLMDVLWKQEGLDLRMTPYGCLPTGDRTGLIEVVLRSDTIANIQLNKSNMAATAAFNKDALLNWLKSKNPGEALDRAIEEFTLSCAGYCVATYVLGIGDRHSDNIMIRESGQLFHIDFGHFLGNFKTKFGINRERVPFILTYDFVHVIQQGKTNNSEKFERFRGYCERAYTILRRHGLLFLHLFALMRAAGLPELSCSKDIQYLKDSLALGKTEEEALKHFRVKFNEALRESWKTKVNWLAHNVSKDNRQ
Chain of human PI3K isoform delta (p110 delta) (P27986 whole entry partner, canonical isoform): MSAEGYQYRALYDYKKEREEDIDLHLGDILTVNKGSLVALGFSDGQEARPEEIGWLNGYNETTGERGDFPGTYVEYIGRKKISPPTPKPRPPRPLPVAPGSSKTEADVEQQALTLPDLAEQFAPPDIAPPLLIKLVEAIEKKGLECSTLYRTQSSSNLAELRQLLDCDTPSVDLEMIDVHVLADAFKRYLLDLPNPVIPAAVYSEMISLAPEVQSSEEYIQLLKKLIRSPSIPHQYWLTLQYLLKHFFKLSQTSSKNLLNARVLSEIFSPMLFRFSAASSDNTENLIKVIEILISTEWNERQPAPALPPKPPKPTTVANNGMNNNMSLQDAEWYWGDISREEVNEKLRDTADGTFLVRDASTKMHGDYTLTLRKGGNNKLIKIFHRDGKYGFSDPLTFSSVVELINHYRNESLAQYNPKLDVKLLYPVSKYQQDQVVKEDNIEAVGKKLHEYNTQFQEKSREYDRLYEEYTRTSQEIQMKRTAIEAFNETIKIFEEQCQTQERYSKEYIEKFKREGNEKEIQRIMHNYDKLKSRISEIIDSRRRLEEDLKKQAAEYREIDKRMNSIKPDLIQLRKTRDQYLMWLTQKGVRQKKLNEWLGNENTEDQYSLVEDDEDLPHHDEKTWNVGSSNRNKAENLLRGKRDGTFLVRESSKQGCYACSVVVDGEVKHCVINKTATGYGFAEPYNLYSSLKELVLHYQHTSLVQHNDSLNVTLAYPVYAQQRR
Chain of human PI3K isoform beta (p110 beta) (P42338 whole entry, canonical isoform): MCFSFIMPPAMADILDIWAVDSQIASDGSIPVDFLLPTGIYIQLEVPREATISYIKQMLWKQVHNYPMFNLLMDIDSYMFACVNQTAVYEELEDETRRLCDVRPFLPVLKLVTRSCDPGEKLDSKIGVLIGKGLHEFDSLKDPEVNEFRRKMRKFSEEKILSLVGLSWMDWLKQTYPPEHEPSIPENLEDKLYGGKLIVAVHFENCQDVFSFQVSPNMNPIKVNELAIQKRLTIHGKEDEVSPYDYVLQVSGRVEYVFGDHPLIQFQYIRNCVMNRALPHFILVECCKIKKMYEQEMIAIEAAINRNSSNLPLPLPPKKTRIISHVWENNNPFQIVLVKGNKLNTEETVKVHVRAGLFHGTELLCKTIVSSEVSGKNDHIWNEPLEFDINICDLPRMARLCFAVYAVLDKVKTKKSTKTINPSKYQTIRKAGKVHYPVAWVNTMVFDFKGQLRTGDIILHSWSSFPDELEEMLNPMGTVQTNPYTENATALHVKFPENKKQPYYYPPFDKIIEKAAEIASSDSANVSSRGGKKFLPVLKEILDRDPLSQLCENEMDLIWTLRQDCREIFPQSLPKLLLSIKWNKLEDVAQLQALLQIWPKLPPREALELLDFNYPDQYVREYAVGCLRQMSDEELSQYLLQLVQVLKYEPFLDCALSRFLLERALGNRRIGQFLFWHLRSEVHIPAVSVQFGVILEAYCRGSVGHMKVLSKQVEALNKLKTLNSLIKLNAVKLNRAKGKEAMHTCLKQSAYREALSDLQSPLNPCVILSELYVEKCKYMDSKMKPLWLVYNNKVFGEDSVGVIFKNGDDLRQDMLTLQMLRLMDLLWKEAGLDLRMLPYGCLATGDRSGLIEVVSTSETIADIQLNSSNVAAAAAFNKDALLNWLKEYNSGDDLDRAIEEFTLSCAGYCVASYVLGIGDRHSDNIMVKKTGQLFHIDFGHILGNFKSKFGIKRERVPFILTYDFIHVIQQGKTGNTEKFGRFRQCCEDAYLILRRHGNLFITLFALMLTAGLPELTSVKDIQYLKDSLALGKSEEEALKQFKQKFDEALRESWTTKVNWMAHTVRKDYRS
Chain of human PI3K isoform beta (p110 beta) (P27986 whole entry partner, canonical isoform): as the sequence (P27986 whole entry partner, canonical isoform) above

Regarding `Cc1c(-c2cccc(S(C)(=O)=O)c2)sc2c(N3CCOCC3)nc(-c3cccc4[nH]ncc34)nc12` [Compound 360, 2-(1H-indazol-4-yl)-7-methyl-6-(3-(methylsulfonyl)phenyl)-4-morpholinothieno[3,2-d]pyrimidine], in experiment [1], the alpha/delta was more than 10. The alpha/gamma in experiment [2] is reported as more than 10. Moreover, the alpha/beta in experiment [3] is reported as more than 10.
Consider `O=C(NCCN1CCCCC1)c1cc2nc(-c3cccc4[nH]ncc34)nc(N3CCOCC3)c2s1` [Compound 257, 2-(1H-indazol-4-yl)-4-morpholino-N-(2-(piperidin-1-yl)ethyl)thieno[3,2-d]pyrimidine-6-carboxamide], for which the alpha/delta in experiment [1] is on record as less than 10. For the same compound, the alpha/gamma in experiment [2] is more than 10. In addition, in experiment [3], the alpha/beta is less than 10.
For `O=C(O)c1cccc(-c2cc3nc(-c4cccc5[nH]ncc45)nc(N4CCOCC4)c3s2)c1` [Compound 338, 3-(2-(1H-indazol-4-yl)-4-morpholinothieno[3,2-d]pyrimidin-6-yl)benzoic acid], the alpha/delta in experiment [1] is reported as less than 10. Further, the alpha/gamma in experiment [2] is given as more than 10. In addition, the alpha/beta in experiment [3] is more than 10.
In the case of `Nc1nc(-c2cc3nc(-c4cnc5[nH]ccc5c4)nc(N4CCOCC4)c3s2)cs1` [Compound 429, 4-(4-morpholino-2-(1H-pyrrolo[2,3-b]pyridin-5-yl)thieno[3,2-d]pyrimidin-6-yl)thiazol-2-amine], in experiment [1], the alpha/delta is reported as more than 10. Further, the alpha/gamma in experiment [2] is more than 10. For the same compound, in experiment [3], the alpha/beta is more than 10.
For the compound `O=S(=O)(Nc1cccc(O)c1)c1cc2nc(-c3cccc4[nH]ncc34)nc(N3CCOCC3)c2s1` [Compound 208, 6-(3-hydroxyphenylaminosulfonyl)-2-(1H-indazol-4-yl)-4-morpholinothieno[3,2-d]pyrimidine], the alpha/delta in experiment [1] was less than 10. Besides, the alpha/gamma in experiment [2] is given as more than 10. Further, the alpha/beta in experiment [3] was more than 10.
Take `OCCNc1cc2nc(-c3cccc4[nH]ncc34)nc(N3CCOCC3)c2s1` [Compound 226, 2-(2-(1H-indazol-4-yl)-4-morpholinothieno[3,2-d]pyrimidin-6-ylamino)ethanol]: in experiment [1], the alpha/delta was less than 10. Further, the alpha/gamma in experiment [2] was more than 10. In experiment [3], the alpha/beta is less than 10.
For `CS(=O)(=O)c1cccc(-c2cc3nc(-c4cnc5[nH]ccc5c4)nc(N4CCOCC4)c3s2)c1` [Compound 418, 6-(3-(methylsulfonyl)phenyl)-4-morpholino-2-(1H-pyrrolo[2,3-b]pyridin-5-yl)thieno[3,2-d]pyrimidine], the alpha/delta in experiment [1] was 10. Also, the alpha/gamma in experiment [2] is listed as more than 10. Moreover, the alpha/beta in experiment [3] is given as more than 10.
Consider `COc1ccc(NCc2cc3nc(-c4cccc5[nH]ncc45)nc(N4CCOCC4)c3s2)cn1` [Compound 368, N-((2-(1H-indazol-4-yl)-4-morpholinothieno[3,2-d]pyrimidin-6-yl)methyl)-6-methoxypyridin-3-amine], for which the alpha/delta in experiment [1] was less than 10. Further, in experiment [2], the alpha/gamma is on record as more than 10. Also, in experiment [3], the alpha/beta is listed as less than 10.
For the compound `NCC(=O)Nc1cccc(-c2cc3nc(-c4cccc5[nH]ncc45)nc(N4CCOCC4)c3s2)c1` [Compound 137, N-(3-(2-(1H-indazol-4-yl)-4-morpholinothieno[3,2-d]pyrimidin-6-yl)phenyl)-2-aminoacetamide], the alpha/delta in experiment [1] is less than 10. Besides, the alpha/gamma in experiment [2] was less than 10. Further, in experiment [3], the alpha/beta is more than 10.
For the compound `O=C(NCc1cc2nc(-c3cccc4[nH]ncc34)nc(N3CCOCC3)c2s1)N1CCOCC1` [Compound 305, N-((2-(1H-indazol-4-yl)-4-morpholinothieno[3,2-d]pyrimidin-6-yl)methyl)morpholine-4-carboxamide], in experiment [1], the alpha/delta is listed as less than 10. The alpha/gamma in experiment [2] is more than 10. In addition, the alpha/beta in experiment [3] is on record as less than 10.
